From article PMC6630470, “Anomeric Spironucleosides of β-D-Glucopyranosyl Uracil as Potential Inhibitors of Glycogen Phosphorylase” (Molecules, 2019)

Target: T1, rabbit muscle glycogen phosphorylase b (RMGPb) (Oryctolagus cuniculus, UniProt P00489)
T1 construct: gene PYGM
T1 sequence (P00489 2-843): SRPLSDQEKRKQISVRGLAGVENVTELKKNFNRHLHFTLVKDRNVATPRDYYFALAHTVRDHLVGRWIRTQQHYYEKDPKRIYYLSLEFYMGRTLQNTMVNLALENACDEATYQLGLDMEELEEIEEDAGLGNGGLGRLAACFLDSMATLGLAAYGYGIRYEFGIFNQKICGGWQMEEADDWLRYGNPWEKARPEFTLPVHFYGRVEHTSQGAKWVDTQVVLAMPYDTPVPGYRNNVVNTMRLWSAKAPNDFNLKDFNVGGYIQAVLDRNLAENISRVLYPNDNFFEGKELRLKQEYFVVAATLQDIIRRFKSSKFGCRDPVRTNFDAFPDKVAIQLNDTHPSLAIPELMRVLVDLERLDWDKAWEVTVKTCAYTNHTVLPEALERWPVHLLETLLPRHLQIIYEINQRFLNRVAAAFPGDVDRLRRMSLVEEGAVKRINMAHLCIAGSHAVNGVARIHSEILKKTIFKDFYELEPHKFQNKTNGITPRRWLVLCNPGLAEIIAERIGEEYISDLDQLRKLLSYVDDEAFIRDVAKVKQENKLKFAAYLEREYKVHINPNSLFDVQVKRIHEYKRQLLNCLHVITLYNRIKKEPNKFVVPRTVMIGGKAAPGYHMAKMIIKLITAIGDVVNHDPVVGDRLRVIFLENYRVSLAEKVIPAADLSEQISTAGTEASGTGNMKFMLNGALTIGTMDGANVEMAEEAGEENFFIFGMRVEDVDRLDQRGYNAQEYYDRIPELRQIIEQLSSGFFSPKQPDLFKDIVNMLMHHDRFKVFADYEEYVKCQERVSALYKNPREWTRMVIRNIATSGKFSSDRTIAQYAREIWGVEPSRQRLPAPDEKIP
Test: enzyme kinetics in the direction of glycogen synthesis with purified, recrystallized RMGPb ([…] AMP, […] glycogen)
Type: biochemical
Settings: read-out: % inhibition at 1 mM

Question: Which inhibition at 1000 µM does the source give for `O=c1cc2n(c(=O)[nH]1)[C@@]1(OC2)O[C@H](CO)[C@@H](O)[C@H](O)[C@H]1O` [4b, (3S,3′R,4′S,5′S,6′R)-3′,4′,5′-Trihydroxy-6′-(hydroxymethyl)-3′,4′,5′,6′-tetrahydrospiro[oxazolo[3,4-c]pyrimidine-3,2′-pyran]-5,7(1H,6H)-dione] here?
Answer: 35%

Question: Which inhibition at 1000 µM does the source give for `O=c1cc2n(c(=O)[nH]1)[C@]1(OC2)O[C@H](CO)[C@@H](O)[C@H](O)[C@H]1O` [4a, (3R,3′R,4′S,5′S,6′R)-3′,4′,5′-Trihydroxy-6′-(hydroxymethyl)-3′,4′,5′,6′-tetrahydrospiro[oxazolo[3,4-c]pyrimidine-3,2′-pyran]-5,7(1H,6H)-dione] here?
Answer: 26%
